The record followed here is patent US11525835B2, “Compounds and methods for use in detecting gabapentin” (Ark Diagnostics, Inc., priority 2007, dated 2022).

For this experiment, the system named is Rabbit polyclonal antibody #10930. Briefly: Specificity of the immunoassay (cross-reactivity of antibody with other antiepileptic drugs). In kind it is binding. As to conditions: assayed in duplicate, Cobas Mira. From the text: Antibodies obtained using any of the disclosed techniques are screened or purified not only for their ability to react with gabapentin, but for a low cross-reactivity with potential interfering substances. “Cross-reactivity” may be determined in a quantitative immunoassay by establishing a standard curve using known dilutions of the target analyte, gabapentin. The standard curve is then used to calculate the apparent concentration of the interfering substance present in various known amounts in samples assayed under similar condition. The cross-reactivity is the apparent concentration divided by the actual concentration multiplied by 100. An exemplary immunoassay for determining cross-reactivity is a homogeneous enzyme immunoassay using a wild type G6PDH as described in U.S. Pat. No. 3,817,837 or mutant G6PDH engineered to contain a cysteine per subunit as described in U.S. Pat. Nos. 6,033,890, 6,090,567 and 6,455,288. Furthermore, the cross-reactivity can be determined in the same type of immunoassay in which the antibody will ultimately be used.
The gabapentin antibodies and enzyme conjugates may be advantageously used in a homogeneous assay format to detect gabapentin in samples. An analyzer (instrument) useful to set up the assay is Roche Cobas Mira (Roche Diagnostics). Gabapentin containing sample is incubated with antibody reagent followed by the addition of the enzyme conjugate reagent. The enzyme conjugate activity decreases upon binding to the antibody. The enzyme conjugate, which is not bound to the antibody, catalyzes the oxidation of glucose 6-phosphate (G6P). The oxidation of G6P is coupled with the reduction of NAD^+ to NADH, which can be measured at 340 nm. The change in the absorbance at 340 nm can be measured spectrophotometrically. The gabapentin concentration in a specimen can be measured in terms of G6PDH activity. The increase in the rate at 340 nm is due to the formation of NADH and is proportional to the enzyme conjugate activity. An assay curve is generated (FIG. 6) using gabapentin spiked into negative calibrator matrix. The assay rate increases with increasing the concentration of free drug in the sample.
The specificity of the immunoassay was evaluated by adding potentially crossreactant drugs to human serum and determining the increase in the apparent concentration as a result of the presence of crossreactant. Separate stock solutions of gabapentin were prepared by dissolving the drug in methanol to give a stock solution of 1000 μg/mL. […] Each sample was assayed in duplicate. Testing was performed on the Cobas Mira Analyzer®. The percentage concentration above 5 μg/mL of gabapentin was calculated for each crossreactant.

The mark [1] stands for this setting: AED at 100 μg/mL in human serum.

For `NC(=O)N1c2ccccc2C=Cc2ccccc21` [Carbamazepine], the “Percent Increase in Apparent Gabapentin” value under setting [1] was determined as 0%.

On to `Nc1nnc(-c2cccc(Cl)c2Cl)c(N)n1` [Lamotrigine], for which the “Percent Increase in Apparent Gabapentin” value under setting [1] is given as 0%.

For `CC[C@@H](C(N)=O)N1CCCC1=O` [Levetiracetam], the “Percent Increase in Apparent Gabapentin” value under setting [1] is given as 0%.

With `CCCC(CCC)C(=O)O` [Valproic Acid], under setting [1], the “Percent Increase in Apparent Gabapentin” value is 0%.

With `NS(=O)(=O)Cc1noc2ccccc12` [Zonisamide], for the setting “AED at 50 μg/mL in human serum”, the “Percent Increase in Apparent Gabapentin” value is given as 0%.
